Laboratory results taken from EP0639202B1, “STABLE POLYPEPTIDE COMPOSITION” (COR THERAPEUTICS, INC., priority 1992, dated 1993).
Where a SMILES comes first, the peptide text is derived from it. Bridges are numbered along the chain shown (N, C = ends). [ ]: non-standard residue; d: D form. hArg = N=C(N)NCCCC[C@H](N)C(=O)O; Mpa = O=C(O)CCS

Assays:
M21 melanoma cells = assay: Cell adhesion assay: 35S-methionine labelled cells on vitronectin-coated plates; format: cell-based; details: for effect on cell adhesion / attachment to vitronectin (in words): M21 melanoma cells, vitronectin-coated plates
Experimental: M21 melanoma cells were labelled with ^35S-methionine, and then added to vitronectin-coated plates in the presence of the indicated concentrations of purified snake venom peptides. Cell attachment was measured by solubilizing the cells remaining after an incubation and wash, as previously describe.

GP IIb-IIIa = target: T1, GP IIb-IIIa (Homo sapiens, UniProt P05106+P08514); assay: Plate assay: inhibition of fibrinogen binding to immobilized GP IIb-IIIa; details: for differential: inhibiting the binding of fibrinogen to GP IIb-IIIa as compared to vitronectin to vitronectin receptor (in words): plate assays
T1 construct: from tissue
T1 sequence (P08514 32-887 limits assumed): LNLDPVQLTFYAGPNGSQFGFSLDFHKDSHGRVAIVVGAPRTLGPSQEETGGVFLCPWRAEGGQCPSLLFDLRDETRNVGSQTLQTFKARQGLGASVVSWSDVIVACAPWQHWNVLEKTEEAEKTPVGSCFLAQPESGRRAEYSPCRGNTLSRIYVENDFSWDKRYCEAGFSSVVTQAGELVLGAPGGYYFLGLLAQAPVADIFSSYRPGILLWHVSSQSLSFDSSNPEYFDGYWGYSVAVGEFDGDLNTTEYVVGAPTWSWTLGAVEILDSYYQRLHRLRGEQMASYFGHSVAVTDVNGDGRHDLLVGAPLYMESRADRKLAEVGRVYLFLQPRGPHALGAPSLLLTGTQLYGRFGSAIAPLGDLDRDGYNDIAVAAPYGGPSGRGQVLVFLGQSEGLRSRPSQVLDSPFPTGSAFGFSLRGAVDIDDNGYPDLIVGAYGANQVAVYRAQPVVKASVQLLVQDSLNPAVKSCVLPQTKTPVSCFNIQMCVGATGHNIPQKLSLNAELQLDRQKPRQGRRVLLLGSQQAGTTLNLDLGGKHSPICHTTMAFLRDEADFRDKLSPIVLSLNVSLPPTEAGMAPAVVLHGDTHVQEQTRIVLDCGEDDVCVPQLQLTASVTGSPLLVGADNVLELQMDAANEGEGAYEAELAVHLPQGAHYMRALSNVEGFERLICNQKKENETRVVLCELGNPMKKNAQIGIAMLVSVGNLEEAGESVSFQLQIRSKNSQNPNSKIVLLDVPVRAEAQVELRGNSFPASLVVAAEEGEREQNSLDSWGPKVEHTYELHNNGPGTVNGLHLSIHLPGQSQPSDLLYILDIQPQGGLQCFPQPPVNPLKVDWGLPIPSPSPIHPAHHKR
T1 sequence (P08514 891-1039 limits assumed): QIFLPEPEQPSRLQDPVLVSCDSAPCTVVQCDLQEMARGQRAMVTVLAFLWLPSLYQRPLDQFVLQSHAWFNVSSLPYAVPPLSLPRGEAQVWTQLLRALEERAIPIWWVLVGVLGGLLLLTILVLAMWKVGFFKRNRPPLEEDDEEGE
T1 sequence (P05106 27-788): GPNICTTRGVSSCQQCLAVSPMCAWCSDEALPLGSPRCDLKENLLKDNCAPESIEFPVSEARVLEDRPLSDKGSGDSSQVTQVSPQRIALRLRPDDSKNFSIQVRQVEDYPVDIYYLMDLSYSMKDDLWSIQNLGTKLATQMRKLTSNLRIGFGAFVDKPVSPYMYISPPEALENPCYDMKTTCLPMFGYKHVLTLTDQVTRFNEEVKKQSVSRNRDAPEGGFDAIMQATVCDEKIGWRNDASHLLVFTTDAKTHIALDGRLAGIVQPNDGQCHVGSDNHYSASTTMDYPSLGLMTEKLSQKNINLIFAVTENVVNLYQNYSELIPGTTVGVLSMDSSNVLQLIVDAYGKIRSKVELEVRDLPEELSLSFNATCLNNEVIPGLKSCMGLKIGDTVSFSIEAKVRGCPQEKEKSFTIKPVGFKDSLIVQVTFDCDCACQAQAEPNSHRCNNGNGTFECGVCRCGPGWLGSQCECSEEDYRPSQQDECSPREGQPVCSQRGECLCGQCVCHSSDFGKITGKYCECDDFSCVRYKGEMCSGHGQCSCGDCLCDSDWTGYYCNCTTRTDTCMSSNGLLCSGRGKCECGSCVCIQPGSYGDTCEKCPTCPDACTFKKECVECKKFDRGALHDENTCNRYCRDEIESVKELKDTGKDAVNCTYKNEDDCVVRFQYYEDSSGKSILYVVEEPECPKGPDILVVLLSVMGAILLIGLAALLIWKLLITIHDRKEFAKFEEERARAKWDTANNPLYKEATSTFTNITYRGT
Experimental: In the assay, GP IIb-IIIa, prepared in purified form, for example as described by Fitzgerald, L.A., et al., Anal Biochem (1985) 151:169-177, incorporated herein by reference, is coated onto a solid support such as beads, test tubes, or microtiter plates. The coated support is then contacted with fibrinogen and with the test material and incubated for a sufficient time to permit maximal binding of fibrinogen to the immobilized GP IIb-IIIa. Fibrinogen is typically provided at a concentration of about 5-50 nM and the test material can, if desired, be added at a series of dilutions. Typical incubations are 2-4 hr at 35°C, the time and temperature being interdependent.
After incubation, the solution containing the fibrinogen and test material is removed and the level of binding of fibrinogen measured by quantitating bound fibrinogen to GP IIb-IIIa. Any suitable means of detection can be used, but it is convenient to employ labeled fibrinogen, for example using radioactive, fluorescent or biotinylated labels. Such methods are well known and need not be elaborated here.
Assessment of the results is aided by employing a control sample, usually identical to the test sample except that the test substance is absent. In this case, percent inhibition may be calculated using the basis, so that % inhibition =(control - test)/(control)x 100. [formula] Other measures of inhibition effectiveness, such as IC50, can also be used.

[1] = target: ADP-induced human platelet aggregation (Homo sapiens, UniProt P05106+P08514); assay: Standard platelet aggregation inhibition assay; format: cell-based
ADP-induced human platelet aggregation, sequence (P08514 32-1039): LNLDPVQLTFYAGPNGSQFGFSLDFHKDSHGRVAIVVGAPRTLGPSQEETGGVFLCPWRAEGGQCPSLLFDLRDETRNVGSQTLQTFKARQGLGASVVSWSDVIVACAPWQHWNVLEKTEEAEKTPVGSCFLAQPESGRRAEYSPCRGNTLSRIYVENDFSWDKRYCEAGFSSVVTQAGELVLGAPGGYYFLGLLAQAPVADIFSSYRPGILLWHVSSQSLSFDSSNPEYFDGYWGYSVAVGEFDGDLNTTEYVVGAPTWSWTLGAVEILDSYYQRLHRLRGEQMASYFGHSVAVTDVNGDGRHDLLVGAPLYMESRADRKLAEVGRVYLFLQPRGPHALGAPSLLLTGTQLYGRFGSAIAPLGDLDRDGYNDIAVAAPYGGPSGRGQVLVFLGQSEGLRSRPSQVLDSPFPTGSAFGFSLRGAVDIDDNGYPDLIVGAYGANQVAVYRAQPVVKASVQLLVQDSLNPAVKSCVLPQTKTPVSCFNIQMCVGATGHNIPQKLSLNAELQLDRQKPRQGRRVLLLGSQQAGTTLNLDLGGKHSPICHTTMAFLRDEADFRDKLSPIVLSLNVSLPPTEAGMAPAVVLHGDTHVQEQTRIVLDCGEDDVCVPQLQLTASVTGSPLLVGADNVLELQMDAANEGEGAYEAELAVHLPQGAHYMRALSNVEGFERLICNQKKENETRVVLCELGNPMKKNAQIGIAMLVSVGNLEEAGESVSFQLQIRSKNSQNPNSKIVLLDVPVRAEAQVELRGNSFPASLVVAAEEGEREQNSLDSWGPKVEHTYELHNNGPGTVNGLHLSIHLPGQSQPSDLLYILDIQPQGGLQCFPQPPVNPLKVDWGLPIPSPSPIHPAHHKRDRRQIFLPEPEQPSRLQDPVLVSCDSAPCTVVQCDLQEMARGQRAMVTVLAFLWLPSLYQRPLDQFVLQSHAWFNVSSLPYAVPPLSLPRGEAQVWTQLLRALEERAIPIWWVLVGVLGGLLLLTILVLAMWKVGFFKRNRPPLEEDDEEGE
ADP-induced human platelet aggregation, sequence (P05106 27-788): as the sequence (P05106 27-788) above
Excerpt: In addition to the above plate assays, other assays for platelet aggregation inhibition activity and related activities are also available, as set forth above. In summary, a list of commonly employed assays is as follows: • 1. The plate assays utilizing specific receptors described in the previous paragraphs; • 2. Standard assays directly applied to platelet aggregation, such as those described by Gann, Z.-R., et al., J Biol Chem (1988) 263:19827-19832; Huang, T.F., et al., J Biol Chem (1987) 262:16157-16163; Biochemistry (1989) 28:661-666, cited above and incorporated herein by reference; • 3. An in vivo thrombosis model in dogs as described by Folts, J.D., et al., Circulation (1976) 54:365; and • 4. Effect on cell adhesion using S35 methionine-labeled cells as described hereinbelow in Example 10.
IC50 values for the analogs of the invention in this assay are as follows:
A solution was formed in 1.0 M citric acid of greater than 95% pure cyclic form of Mpr-L-homoarginine-Gly-Asp-Trp-Pro-Cys-NH2 • acetate polypeptide (I) at a concentration of up to 200 mg per ml of solution. This solution was diluted to the desired final peptide concentration as follows: This solution was first diluted to about 85% of the final volume with water. The pH of the solution was adjusted to 5.0-5.5 using sodium hydroxide. The solution was then diluted to the final volume with water. Compositions having a concentration of (I) of 0.5 mg/ml and 5.0 mg/ml were formulated and evaluated for stability by HPLC, UV and visual inspection as described in Example 1. The compositions were also evaluated for platelet aggregation inhibiting activity using the assay described above.

[2] = Storage stability of polypeptide in citrate buffer solution, analysed by reversed phase HPLC; format: physicochemical; set-up: key: % of main peak of original polypeptide found by HPLC; details: 25 mM citrate buffer pH 5.25, about 1 mg/mL
[3] = as above; format: physicochemical
Experimental: One ml aliquots of the above solution of polypeptide in citrate buffer were sealed in borosilicate glass ampules under sterile conditions and stored at a constant temperature. Test sample ampules from each pH and temperature condition 4°C, 50°C and 70°C were removed periodically, visually assessed and then analyzed separately by HPLC using a mobile phase comprising acetonitrile (MeCN) and 0.1% trifluoroacetic (TFA) in water. This stability was evaluated by conventional assay methods applicable to purity, weight or size of polypeptides. These included not only visual evaluations, such as discoloration, transparency and precipitation, and included assays normally applied to separate polypeptides from each other and from other materials by reversed phase high performance liquid chromatography (HPLC).
Results of these experiments are set forth in Table 1 in which the stability is expressed in terms of the percentage of main peak of original polypeptide found in the sample analyzed by HPLC. The composition was also found to be normal on visual evaluation. […]

vitronectin receptor = vitronectin receptor (Homo sapiens, UniProt P05106+P06756); assay: Plate assay: inhibition of vitronectin binding to vitronectin receptor; details: at concentrations up to 1 uM
vitronectin receptor, sequence (P06756 31-889 limits assumed): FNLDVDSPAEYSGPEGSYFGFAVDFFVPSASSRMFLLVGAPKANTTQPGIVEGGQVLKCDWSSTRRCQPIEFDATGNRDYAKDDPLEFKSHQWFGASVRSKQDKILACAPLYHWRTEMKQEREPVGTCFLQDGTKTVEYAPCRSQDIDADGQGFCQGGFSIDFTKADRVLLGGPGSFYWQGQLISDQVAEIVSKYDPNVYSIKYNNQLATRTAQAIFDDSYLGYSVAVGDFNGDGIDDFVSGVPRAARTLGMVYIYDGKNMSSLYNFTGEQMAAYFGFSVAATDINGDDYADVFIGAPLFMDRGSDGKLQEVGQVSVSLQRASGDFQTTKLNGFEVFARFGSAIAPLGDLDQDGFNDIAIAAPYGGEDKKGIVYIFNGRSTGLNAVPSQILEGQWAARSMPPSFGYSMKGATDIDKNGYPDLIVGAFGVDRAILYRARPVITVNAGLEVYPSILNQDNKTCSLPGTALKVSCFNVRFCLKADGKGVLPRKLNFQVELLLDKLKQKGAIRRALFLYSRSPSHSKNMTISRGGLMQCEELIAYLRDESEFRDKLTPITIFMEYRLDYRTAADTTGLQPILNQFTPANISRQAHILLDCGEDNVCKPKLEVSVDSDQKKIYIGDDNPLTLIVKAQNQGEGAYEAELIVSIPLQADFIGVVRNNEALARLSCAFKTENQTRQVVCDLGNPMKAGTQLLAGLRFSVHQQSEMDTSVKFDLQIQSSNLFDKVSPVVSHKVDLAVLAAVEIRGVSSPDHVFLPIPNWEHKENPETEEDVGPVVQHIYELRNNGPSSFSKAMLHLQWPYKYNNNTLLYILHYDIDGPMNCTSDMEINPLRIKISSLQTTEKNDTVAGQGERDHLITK
vitronectin receptor, sequence (P06756 891-1048 limits assumed): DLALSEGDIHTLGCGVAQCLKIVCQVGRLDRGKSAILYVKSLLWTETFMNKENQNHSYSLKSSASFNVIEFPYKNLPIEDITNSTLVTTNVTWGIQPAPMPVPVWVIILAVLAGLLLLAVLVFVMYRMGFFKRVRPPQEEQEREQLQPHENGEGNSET
vitronectin receptor, sequence (P05106 27-788): as the sequence (P05106 27-788) above
Excerpt: The PAI assay systems further include characterization of the PAI specificity by binding inhibition assays identical to that above but substituting other adhesive proteins for Fg and other receptors for GP IIb-IIIa. In particular, inhibition of the binding of vitronectin to the vitronectin receptor; fibronectin to the fibronectin receptor; fibronectin to GP IIb-IIIa and fibrinogen and/or vWF to GP IIb-IIIa can be assessed. The adhesive protein and receptors for these assays are available in the art.

C[C@H](NC(=O)[C@@H]1CSSC[C@H](NC(=O)CN)C(=O)NCC(=O)N[C@@H](CCCCN)C(=O)NCC(=O)N[C@@H](CC(=O)O)C(=O)N[C@@H](Cc2c[nH]c3ccccc23)C(=O)N2CCC[C@H]2C(=O)N1)C(N)=O [Analog #3, G-C-G-K-G-D-W-P-C-A-NH2]
effect on M21 cell attachment to vitronectin (in words) (M21 melanoma cells; up to 60 uM): ineffective

C[C@H](NC(=O)[C@@H]1CSSC[C@H](NC(=O)CN)C(=O)N[C@@H](CCCCN)C(=O)NCC(=O)N[C@@H](CC(=O)O)C(=O)N[C@@H](Cc2c[nH]c3ccccc23)C(=O)N2CCC[C@H]2C(=O)N1)C(N)=O [Analog #4] (H-GCKGDWPCA-NH2; disulfide 2-8)
differential: inhibiting the binding of fibrinogen to GP IIb-IIIa as compared to vitronectin to vitronectin receptor (in words) (GP IIb-IIIa): highest differential

NCCCC[C@@H]1NC(=O)CNC(=O)[C@@H](N)CSSC[C@@H](C(N)=O)NC(=O)[C@@H]2CCCN2C(=O)[C@H](Cc2c[nH]c3ccccc23)NC(=O)[C@H](CC(=O)O)NC(=O)CNC1=O [Analog #5] (H-CGKGDWPC-NH2; disulfide 1-8)
platelet aggregation inhibition activity (in words) [1]: excellent platelet aggregation inhibition activities
differential: inhibiting the binding of fibrinogen to GP IIb-IIIa as compared to vitronectin to vitronectin receptor (in words) (GP IIb-IIIa): quite specific

C[C@H](NC(=O)[C@@H]1CSSC[C@H](NC(=O)CN)C(=O)N[C@@H](CCCCN)C(=O)NCC(=O)N[C@@H](CC(=O)O)C(=O)N[C@@H](Cc2c[nH]c3ccccc23)C(=O)N1)C(N)=O [Analog #7] (H-GCKGDWCA-NH2; disulfide 2-7)
platelet aggregation inhibition activity (in words) [1]: excellent platelet aggregation inhibition activities
differential: inhibiting the binding of fibrinogen to GP IIb-IIIa as compared to vitronectin to vitronectin receptor (in words) (GP IIb-IIIa): quite specific

NCCCC[C@@H]1NC(=O)CCSSC[C@@H](C(N)=O)NC(=O)[C@@H]2CCCN2C(=O)[C@H](Cc2c[nH]c3ccccc23)NC(=O)[C@H](CC(=O)O)NC(=O)CNC1=O [Analog #19, Mpr-K-G-D-W-P-C-NH2] ([Mpa]KGDWPC-NH2; disulfide 1-7 (inferred))
platelet aggregation inhibition activity (in words) [1]: good platelet aggregation inhibition activity

N=C(N)NCCCC[C@@H]1NC(=O)CCSSC[C@@H](C(N)=O)NC(=O)[C@@H]2CCCN2C(=O)[C@H](Cc2c[nH]c3ccccc23)NC(=O)[C@H](CC(=O)O)NC(=O)CNC1=O [Analog #60, Mpr-(Har)-G-D-W-P-C-NH2] ([Mpa][hArg]GDWPC-NH2; disulfide 1-7 (inferred))
platelet aggregation inhibition activity (in words) [1]: efficient at vanishingly small concentrations
effect on cell adhesion / attachment to vitronectin (in words) (M21 melanoma cells): relatively less effective

C[C@H](NC(=O)[C@@H]1CSSC[C@H](NC(=O)CN)C(=O)NCC(=O)N[C@@H](CCCNC(=N)N)C(=O)NCC(=O)N[C@@H](CC(=O)O)C(=O)N[C@@H](Cc2c[nH]c3ccccc23)C(=O)N2CCC[C@H]2C(=O)N1)C(N)=O [reference compound] (H-GCGRGDWPCA-NH2; disulfide 2-9)
effect on cell adhesion / attachment to vitronectin (in words) (M21 melanoma cells): potent inhibitors of cell attachment

Mpr-Ala-(Har)-G-D-W-P-C-NH2
stability by HPLC ([2]; 5°C, 0 days): 99.6
stability by HPLC ([2]; 5°C, 29 days): 98.1
stability by HPLC ([2]; 5°C, 60 days): 98.3
stability by HPLC ([2]; 5°C, 90 days): 97.3
stability by HPLC ([2]; 30°C, 29 days): 97.3
stability by HPLC ([2]; 30°C, 60 days): 97.3
stability by HPLC ([2]; 30°C, 90 days): 96.5
stability by HPLC ([2]; 45°C, 29 days): 95.4
stability by HPLC ([2]; 45°C, 60 days): 92.6
stability by HPLC ([2]; 45°C, 90 days): 90.6

Mpr-L-homoarginine-Gly-Asp-Trp-Pro-Cys-NH2 • acetate
stability of liquid solution (in words) ([3]; Example 1: 2 mg/ml in citrate buffer pH 5.00 and 5.50, about 4°C): very stable
stability of liquid solution (in words) ([3]; Example 1: 2 mg/ml in citrate buffer pH 5.00 and 5.50, up to about 50°C): still stable
stability of liquid solution (in words) ([3]; Example 1: citrate buffer pH 5.00 and 5.50, 70°C, in comparison to citrate buffer solutions at pH 6.0): much more stable

[E^28L^41C^64]barbourin (28-73):E-C-A-D-G-L-C-C-D-O-CRFLKKGTVCRVAKGDWNDDTCTG-O-S-C-D-C-P-R-N-G-L-Y-G [Analog #1]
platelet aggregation inhibition activity (in words) [1]: potent inhibitors of platelet aggregation
affinity for GP IIb-IIIa (ability to inhibit the binding of fibrinogen to GP IIb-IIIa) (GP IIb-IIIa): high affinity
affinity for VnR (vitronectin receptor): relative lack of affinity
effect on cell adhesion / attachment to vitronectin (in words) (M21 melanoma cells): Neither barbourin nor Peptide 1 (truncated barbourin) had a significant effect
